Experimental findings from patent US20050181376A1, “Antisense modulation of microsomal triglyceride transfer protein expression” (ISIS Pharmaceuticals, Inc., priority 2001, published 2005) are described below.

In this data set the test system is human microsomal triglyceride transfer protein mRNA. In words: Antisense inhibition of human microsomal triglyceride transfer protein mRNA levels, quantitative real-time PCR. Also: test concentration or dose not given here. The settings on record: averages from two experiments. (In general: Quantitative PCR measures a nucleic acid by following its amplification.)

Strand notation (5' to 3'): a small letter for the sugar, then the base; units joined by * are phosphorothioate-linked, units joined directly phosphodiester-linked; [ ] holds rarer units or linkages, { } end groups; capitals alone tell only the bases. e = 2'-O-(2-methoxyethyl) (MOE); [5mC] = 5-methylcytosine; d = 2'-deoxy (DNA)

Regarding “144410 (e[5mC]*e[5mC]*eA*eG*eT*dT*dG*dT*dG*dT*dG*dA*d[5mC]*d[5mC]*dT*eT*eT*eA*eA*e[5mC]; antisense) [compound 144410]”, the “% INHIB (inhibition of human microsomal triglyceride transfer protein mRNA levels)” value (from here on “% INHIB”) came out at 38%.

“144411 (eA*e[5mC]*eG*eT*eG*dA*dG*d[5mC]*dT*dT*dG*dT*dA*d[5mC]*dA*eG*e[5mC]*e[5mC]*eG*eG; antisense) [compound 144411]”: the “% INHIB” value is recorded as 28%.

Take “144412 (eG*e[5mC]*eG*eG*eT*dA*dG*d[5mC]*d[5mC]*d[5mC]*dA*d[5mC]*dG*d[5mC]*dT*eG*eT*e[5mC]*eT*eT; antisense) [compound 144412]”: the “% INHIB” value was 34%.

“144413 (eG*eA*eT*eT*e[5mC]*d[5mC]*dT*d[5mC]*d[5mC]*dA*dT*dA*dG*dT*dA*eA*eG*eG*e[5mC]*e[5mC]; antisense) [compound 144413]”: the “% INHIB” value is given as 91%.

Turning to “144414 (eG*eA*eT*eT*eA*dG*dA*dT*dG*dA*dA*dG*dG*dA*dG*e[5mC]*eG*eT*eA*eG; antisense) [compound 144414]”, the “% INHIB” value is given as 0%.

Consider “144415 (eG*eT*eG*eG*eT*dT*d[5mC]*d[5mC]*dA*dG*dA*dG*d[5mC]*dT*dT*eA*eA*e[5mC]*eT*eG; antisense) [compound 144415]”, for which the “% INHIB” value amounted to 0%.

With “144416 (eA*eG*eG*eT*eG*dG*dT*dG*dA*d[5mC]*dA*dG*dA*dT*dG*eT*eA*eG*e[5mC]*eT; antisense) [compound 144416]”, the “% INHIB” value amounted to 27%.

For the substance “144417 (eG*e[5mC]*eT*eG*e[5mC]*dA*dG*d[5mC]*d[5mC]*dT*dG*d[5mC]*dT*dT*dT*e[5mC]*e[5mC]*eA*eG*eA; antisense) [compound 144417]”, the “% INHIB” value is reported as 9%.

In the case of “144418 (eA*e[5mC]*eA*eG*eT*dG*dG*d[5mC]*dT*d[5mC]*dT*dG*dG*dA*dA*eG*eA*e[5mC]*e[5mC]*eT; antisense) [compound 144418]”, the “% INHIB” value was 0%.

For “144419 (eT*eG*eG*eT*eG*dG*dA*d[5mC]*d[5mC]*dG*d[5mC]*d[5mC]*dA*dG*dA*eG*e[5mC]*eT*e[5mC]*e[5mC]; antisense) [compound 144419]”, the “% INHIB” value stood at 0%.

For the substance “144420 (eG*eA*eG*eG*eT*dG*dA*d[5mC]*dA*dG*d[5mC]*dA*dT*d[5mC]*d[5mC]*eA*e[5mC]*e[5mC]*eA*eG; antisense) [compound 144420]”, the “% INHIB” value is on record as 21%.

For “144421 (eA*eT*eG*eG*e[5mC]*dT*dT*d[5mC]*dT*dA*dA*dT*dG*dA*dG*eT*e[5mC]*eT*eG*eA; antisense) [compound 144421]”, the “% INHIB” value was 13%.

Turning to “144422 (e[5mC]*e[5mC]*eT*eG*eG*dA*dG*dG*dA*dT*dA*dA*dT*dG*d[5mC]*eT*eG*e[5mC]*eT*eG; antisense) [compound 144422]”, the “% INHIB” value was 37%.

On to “144423 (eA*eG*eT*eG*eT*d[5mC]*d[5mC]*d[5mC]*dA*dG*dT*dG*dA*dT*dG*eA*eT*e[5mC]*eA*eT; antisense) [compound 144423]”, for which the “% INHIB” value is listed as 41%.

In the case of “144424 (eA*eG*e[5mC]*eA*eG*dA*dT*dA*d[5mC]*dA*dT*d[5mC]*d[5mC]*dT*dG*eG*eT*eG*eT*e[5mC]; antisense) [compound 144424]”, the “% INHIB” value was determined as 23%.

For “144425 (e[5mC]*e[5mC]*e[5mC]*eT*eT*d[5mC]*dT*d[5mC]*d[5mC]*dT*dG*d[5mC]*dT*dT*d[5mC]*eT*eG*e[5mC]*eA*eT; antisense) [compound 144425]”, the “% INHIB” value turned out to be 22%.

For the substance “144426 (eG*eA*eG*e[5mC]*eA*dG*dT*dG*dG*dT*dA*dG*d[5mC]*d[5mC]*dA*eG*eG*eT*eG*eG; antisense) [compound 144426]”, the “% INHIB” value is 22%.

In the case of “144427 (eT*eA*eA*eG*eG*dT*d[5mC]*dT*dT*d[5mC]*dT*dT*d[5mC]*dA*d[5mC]*e[5mC]*eT*e[5mC]*eA*eT; antisense) [compound 144427]”, the “% INHIB” value was 8%.

For “144428 (eG*e[5mC]*eA*eG*e[5mC]*dT*dG*d[5mC]*dA*dG*d[5mC]*dA*dG*dT*dG*e[5mC]*eG*e[5mC]*eA*e[5mC]; antisense) [compound 144428]”, the “% INHIB” value amounted to 19%.

Consider “144429 (e[5mC]*eT*eT*eG*eA*d[5mC]*dG*dT*d[5mC]*d[5mC]*dA*dT*dG*dT*dA*eG*eG*eA*eT*eG; antisense) [compound 144429]”, for which the “% INHIB” value came out at 0%.

With “144430 (e[5mC]*eT*eA*eT*eG*dT*dA*dG*d[5mC]*d[5mC]*dA*dG*dT*dG*dT*eA*eG*eG*e[5mC]*eA; antisense) [compound 144430]”, the “% INHIB” value is given as 0%.

“144431 (e[5mC]*eG*eA*eG*eT*dA*dG*dA*dG*dA*dA*dT*dG*dT*d[5mC]*eT*eA*eG*eG*e[5mC]; antisense) [compound 144431]”: the “% INHIB” value is 26%.

For the substance “144432 (eT*eA*e[5mC]*e[5mC]*eG*dT*dG*dA*dA*dG*dA*d[5mC]*d[5mC]*dA*dG*e[5mC]*e[5mC]*eT*eT*e[5mC]; antisense) [compound 144432]”, the “% INHIB” value came to 0%.

Regarding “144433 (eA*eT*eT*eA*eA*dG*dG*d[5mC]*dT*dT*d[5mC]*d[5mC]*dA*dG*dT*e[5mC]*e[5mC]*eT*eT*eG; antisense) [compound 144433]”, the “% INHIB” value is listed as 0%.

Regarding “144434 (e[5mC]*e[5mC]*e[5mC]*eT*eG*dG*dA*d[5mC]*d[5mC]*dT*d[5mC]*dT*dA*dT*dA*eT*eT*eG*eG*e[5mC]; antisense) [compound 144434]”, the “% INHIB” value was 0%.

For “144435 (eG*eA*eT*eA*e[5mC]*d[5mC]*dA*d[5mC]*dA*dA*dG*d[5mC]*dT*dA*dA*eA*e[5mC]*eT*e[5mC]*e[5mC]; antisense) [compound 144435]”, the “% INHIB” value came out at 0%.

Consider “144436 (eG*eA*eG*eG*eA*dG*dT*d[5mC]*d[5mC]*dA*d[5mC]*dT*dG*dT*dG*eA*eT*eG*eT*e[5mC]; antisense) [compound 144436]”, for which the “% INHIB” value stood at 29%.

For the substance “144437 (eG*eT*eA*e[5mC]*eT*dG*dG*dT*dT*dT*d[5mC]*d[5mC]*dA*dG*dG*e[5mC]*e[5mC]*eA*eG*e[5mC]; antisense) [compound 144437]”, the “% INHIB” value is recorded as 32%.

With “144438 (eG*e[5mC]*eT*eT*e[5mC]*dA*dT*d[5mC]*d[5mC]*dT*dT*dG*dT*d[5mC]*d[5mC]*eA*eT*e[5mC]*eT*eG; antisense) [compound 144438]”, the “% INHIB” value is given as 53%.

“144439 (e[5mC]*eG*e[5mC]*eT*eG*dG*dA*dA*dG*dT*dA*d[5mC]*dT*dA*dT*e[5mC]*e[5mC]*eG*eG*e[5mC]; antisense) [compound 144439]”: the “% INHIB” value was 52%.

Consider “144440 (eA*eA*eT*eA*eT*d[5mC]*dA*d[5mC]*dA*dG*dG*dT*d[5mC]*dA*dG*eT*eT*eT*e[5mC]*eA; antisense) [compound 144440]”, for which the “% INHIB” value is on record as 40%.

As for “144441 (e[5mC]*eA*eT*eG*e[5mC]*d[5mC]*dA*d[5mC]*dA*dT*dT*dG*dT*dG*dT*e[5mC]*e[5mC]*e[5mC]*eT*eT; antisense) [compound 144441]”, the “% INHIB” value is on record as 60%.

On to “144442 (e[5mC]*eG*e[5mC]*eT*eG*dT*dG*d[5mC]*dT*d[5mC]*dT*d[5mC]*dA*dG*dA*eG*eA*eG*e[5mC]*eA; antisense) [compound 144442]”, for which the “% INHIB” value turned out to be 57%.

In the case of “144443 (eG*eT*eA*eG*e[5mC]*dA*dT*dA*d[5mC]*dT*dG*d[5mC]*dA*dT*dA*eT*eA*e[5mC]*e[5mC]*e[5mC]; antisense) [compound 144443]”, the “% INHIB” value came to 51%.

As for “144444 (eG*eA*eT*eG*eA*dT*dT*d[5mC]*dA*dA*dA*dA*dT*dG*dA*e[5mC]*eG*e[5mC]*eT*eG; antisense) [compound 144444]”, the “% INHIB” value was 32%.

In the case of “144445 (eG*eA*eT*eT*eT*dG*dA*dG*dA*dG*dA*dG*dG*dT*dA*eT*eA*eA*eG*eT; antisense) [compound 144445]”, the “% INHIB” value stood at 18%.

In the case of “144446 (eG*eA*eG*eA*eA*dT*dA*dA*d[5mC]*dT*dA*dT*dT*d[5mC]*dT*eG*eA*e[5mC]*eT*eG; antisense) [compound 144446]”, the “% INHIB” value is given as 28%.

Take “144447 (eG*eA*eG*e[5mC]*eT*dT*d[5mC]*dA*dT*dA*dT*dA*d[5mC]*dA*dT*eT*eG*eA*eT*e[5mC]; antisense) [compound 144447]”: the “% INHIB” value was 70%.

On to “144448 (e[5mC]*e[5mC]*e[5mC]*eG*eT*d[5mC]*dA*dT*dG*d[5mC]*dT*dT*dA*dA*dG*eG*eA*eA*eG*eT) [compound 144448]”, for which the “% INHIB” value is 49%.

“144449 (eA*eT*eG*eT*eG*d[5mC]*d[5mC]*dT*dT*d[5mC]*dT*dA*d[5mC]*d[5mC]*dT*eT*eA*eA*eG*eG) [compound 144449]”: the “% INHIB” value was 35%.

For the substance “AATATCACAGGTCAGTTTCA (antisense eA*eA*eT*eA*eT*d[5mC]*dA*d[5mC]*dA*dG*dG*dT*d[5mC]*dA*dG*eT*eT*eT*e[5mC]*eA) [ISIS 144440]”, the “% INHIB” value was “at least 30%”.
